Entries after “also recorded” stand apart in the source; their conditions may differ. Structures can show the parent of a compound that is named as a salt. One block for each compound: values may come before it.
Tests used:
E. coli JT39 = experiment: MIC by serial dilution in nutrient agar (Table 2); format: cell-based; conditions: ampicillin alone
E. coli B11 = experiment: MIC by serial dilution in nutrient agar (Table 2); format: cell-based; conditions: ampicillin alone
Proteus rettgeri R110 = experiment: MIC by serial dilution in nutrient agar (Table 2); format: cell-based; conditions: ampicillin alone
[1] = tested on: Klebsiella aerogenes IP282; experiment: MIC by serial dilution in nutrient agar (Table 2); format: cell-based; conditions: ampicillin alone
Proteus morganii F = experiment: MIC by serial dilution in nutrient agar (Table 2); format: cell-based; conditions: ampicillin alone
Staph.aureus (Russell H) = experiment: MIC by serial dilution in nutrient agar (Table 2); format: cell-based; conditions: ampicillin alone
Proteus mirabilis 247 = experiment: MIC by serial dilution in nutrient agar (Table 2); format: cell-based; conditions: ampicillin alone
E. coli JT417 = experiment: MIC by serial dilution in nutrient agar (Table 2); format: cell-based; conditions: ampicillin alone
Proteus mirabilis 889 = experiment: MIC by serial dilution in nutrient agar (Table 2); format: cell-based; conditions: ampicillin alone
Staph.aureus (Russell) = experiment: MIC by serial dilution in nutrient agar (Table 2); format: cell-based; conditions: ampicillin alone
monoamine oxidase = experiment: enzyme inhibition (general enzyme poison check); format: biochemical; conditions: at concentrations in excess of those required to inhibit E. coli β-lactamase
[2] = tested on: B. subtilis, Staphylococcus aureus, Escherichia coli, Salmonella typhimurium, Proteus mirabilis, Proteus morganii and Klebsiella aerogenes; experiment: detection by bioautography after TLC on cellulose (in words); format: cell-based, bacteria (various species)
[3] = tested on: Staphylococcus aureus(Oxford); experiment: bioautography zone diameter (Table 4); format: cell-based; conditions: TLC cellulose, butanol/isopropyl alcohol/water 7:7:6
carbonic anhydrase = experiment: enzyme inhibition (general enzyme poison check); format: biochemical; conditions: at concentrations in excess of those required to inhibit E. coli β-lactamase
trypsin = experiment: enzyme inhibition (general enzyme poison check); format: biochemical; conditions: at concentrations in excess of those required to inhibit E. coli β-lactamase
[4] = tested on: various species including strains of Staphylococcus aureus, Bacillus subtilis, Escherichia coli, Klebsiella aerogenes, Proteus mirabilis; experiment: antibacterial activity against various species (in words); format: cell-based, bacteria (various species); conditions: sodium salt
[5] = tested on: Escherichia coli, Klebsiella aerogenes, Proteus mirabilis, Proteus morganii and Staphylococcus aureus Russell; experiment: synergy with ampicillin (in words); format: cell-based, bacteria (various species); conditions: mixed with ampicillin
[6] = tested on: Escherichia coli β-lactamase; experiment: β-lactamase inhibition (in words); format: biochemical
Source text: (§1) In a further experiment, the two substances were separated on a cellulose thin layer developed with isopropanol:water (8:2) and extracted from the cellulose with phosphate buffer.

urease = experiment: enzyme inhibition (general enzyme poison check); format: biochemical; conditions: at concentrations in excess of those required to inhibit E. coli β-lactamase
Klebsiella aerogenes [7] = experiment: synergy with benzylpenicillin; format: cell-based; conditions: extracts from cellulose thin layer
Source text: as §1

Klebsiella aerogenes [8] = experiment: bioautography zone diameter (Table 4); format: cell-based; conditions: TLC cellulose, butanol/isopropyl alcohol/water 7:7:6
Proteus morganii = experiment: bioautography zone diameter (Table 4); format: cell-based; conditions: TLC cellulose, butanol/isopropyl alcohol/water 7:7:6
Escherichia coli 10418 = experiment: bioautography zone diameter (Table 4); format: cell-based; conditions: TLC cellulose, butanol/isopropyl alcohol/water 7:7:6
Enterobacter aerogenes = experiment: bioautography zone diameter (Table 4); format: cell-based; conditions: TLC cellulose, butanol/isopropyl alcohol/water 7:7:6
chymotrypsin = experiment: enzyme inhibition (general enzyme poison check); format: biochemical; conditions: at concentrations in excess of those required to inhibit E. coli β-lactamase
Escherichia coli 311 = experiment: bioautography zone diameter (Table 4); format: cell-based; conditions: TLC cellulose, butanol/isopropyl alcohol/water 7:7:6
Bacillus subtilis = experiment: bioautography zone diameter (Table 4); format: cell-based; conditions: TLC cellulose, butanol/isopropyl alcohol/water 7:7:6
dopa decarboxylase = experiment: enzyme inhibition (general enzyme poison check); format: biochemical; conditions: at concentrations in excess of those required to inhibit E. coli β-lactamase
[9] = tested on: β-lactamase of Staphylococcus aureus; experiment: β-lactamase inhibition (in words); format: biochemical
[10] = tested on: β-lactamase of Klebsiella aerogenes; experiment: β-lactamase inhibition (in words); format: biochemical
[11] = tested on: Staphylococcus aureus(Russell); experiment: bioautography zone diameter (Table 4); format: cell-based; conditions: TLC cellulose, butanol/isopropyl alcohol/water 7:7:6
[12] = activity in arbitrary units per mg; conditions: Example 3
Description: The material produced above was arbitrarily assigned an activity of 340 l/ml. Assays were determined as described in Description 3.

solubility = conditions: sodium salt
stability = format: physicochemical

Structure (SMILES): CC1(C)S[C@@H]2[C@H](NC(=O)[C@H](N)c3ccccc3)C(=O)N2[C@H]1C(=O)O [Ampicillin]
minimum inhibitory concentration (E. coli JT39): > 500 | minimum inhibitory concentration (E. coli B11): > 500 | minimum inhibitory concentration (Proteus rettgeri R110): 250 | minimum inhibitory concentration [1]: 50 | minimum inhibitory concentration (Proteus morganii F): 50 | minimum inhibitory concentration (Staph.aureus (Russell H)): > 500 | minimum inhibitory concentration (Proteus mirabilis 247): > 500 | minimum inhibitory concentration (E. coli JT417): 250 | minimum inhibitory concentration (Proteus mirabilis 889): > 500 | minimum inhibitory concentration (Staph.aureus (Russell)): 250

Structure (SMILES): CC(=O)N/C=C/[S+]([O-])C1=C(C(=O)O)N2C(=O)C(C(C)OS(=O)(=O)O)C2C1 (centres unmarked) [MM 4550A]
inhibition of monoamine oxidase (monoamine oxidase): does not inhibit | detection by bioautography [2]: may be detected by bioautography on a variety of organisms | Zone Diameter on Bioautography [3]: 13.0 mm | inhibition of carbonic anhydrase (carbonic anhydrase): does not inhibit | inhibition of trypsin (trypsin): does not inhibit | antibacterial activity [4]: possesses antibacterial activity | synergy with ampicillin [5]: synergyses its activity | β-lactamase inhibition [6]: possesses enzyme inhibitory activity; also recorded: shown to be inhibitors | inhibition of urease (urease): does not inhibit | synergy with benzylpenicillin (Klebsiella aerogenes [7]): shown to be synergistic with benzylpenicillin | Zone Diameter on Bioautography (Klebsiella aerogenes [8]): 20.0 mm | Zone Diameter on Bioautography (Proteus morganii): 16.0 mm | Zone Diameter on Bioautography (Escherichia coli 10418): 20.0 mm | Zone Diameter on Bioautography (Enterobacter aerogenes): 6.5 mm | inhibition of chymotrypsin (chymotrypsin): does not inhibit | Zone Diameter on Bioautography (Escherichia coli 311): 17.5 mm | Zone Diameter on Bioautography (Bacillus subtilis): 24.0 mm | inhibition of dopa decarboxylase (dopa decarboxylase): does not inhibit | β-lactamase inhibition [9]: possesses enzyme inhibitory activity | β-lactamase inhibition [10]: possesses enzyme inhibitory activity | Zone Diameter on Bioautography [11]: 12.0 mm

Structure (SMILES): CC(=O)N/C=C/SC1=C(C(=O)O)N2C(=O)C(C(C)OS(=O)(=O)O)C2C1 (centres unmarked) [MM 13902]
detection by bioautography [2]: may be detected by bioautography on a variety of organisms | Zone Diameter on Bioautography [3]: 4.0 mm | activity ([12]; partially purified salt, brown solid): 37,000 units/mg | antibacterial activity [4]: possessed antibacterial activity | synergy with ampicillin [5]: synergizes its activity | β-lactamase inhibition [6]: shown to be inhibitors | synergy with benzylpenicillin (Klebsiella aerogenes [7]): shown to be synergistic with benzylpenicillin | Zone Diameter on Bioautography (Klebsiella aerogenes [8]): 20.0 mm | Zone Diameter on Bioautography (Enterobacter aerogenes): No Zone | solubility in chloroform, diethylether and hydrocarbons (solubility): substantially insoluble | solubility in methanol (solubility): soluble | solubility in water (solubility): highly soluble | stability (stability): tends to be unstable when in the unsalted acid form; also recorded: not sufficiently stable | Zone Diameter on Bioautography [11]: 4.0 mm

Structure (SMILES): CC(=O)NC=CSC1=C(C(=O)O)N2C(=O)C(C(C)OS(=O)(=O)O)C2C1 (centres unmarked) [di-sodium salt of MM 13902]
activity ([12]; di-sodium salt after cellulose chromatography, yellowish powder): 73,000 units/mg

stability (stability): not sufficiently stable
Structure (SMILES): CC(=O)NC=CSC1=C(C(=O)O)N2C(=O)C(C(C)OS(=O)(=O)O)C2C1 (centres unmarked) [monobasic salts of MM 13902]
